Measurements taken from patent US20040053355A1, “Modular approach to on-line synthesis, drug discovery and biochemical transformations using immobilized enzyme reactors” (priority 2000, published 2004).
pIC50: −log10 of the molar value.

How the values were obtained:
[1] = molecular target: T1, DBH-Glut-P IMER (immobilized dopamine beta-hydroxylase) (Bos taurus, UniProt P15101); assay: On-line DBH-Glut-P immobilized enzyme reactor (DBH-Glut-P IMER) HPLC system; format: biochemical, bovine
T1 construct: purchased
T1 sequence (P15101 1-610): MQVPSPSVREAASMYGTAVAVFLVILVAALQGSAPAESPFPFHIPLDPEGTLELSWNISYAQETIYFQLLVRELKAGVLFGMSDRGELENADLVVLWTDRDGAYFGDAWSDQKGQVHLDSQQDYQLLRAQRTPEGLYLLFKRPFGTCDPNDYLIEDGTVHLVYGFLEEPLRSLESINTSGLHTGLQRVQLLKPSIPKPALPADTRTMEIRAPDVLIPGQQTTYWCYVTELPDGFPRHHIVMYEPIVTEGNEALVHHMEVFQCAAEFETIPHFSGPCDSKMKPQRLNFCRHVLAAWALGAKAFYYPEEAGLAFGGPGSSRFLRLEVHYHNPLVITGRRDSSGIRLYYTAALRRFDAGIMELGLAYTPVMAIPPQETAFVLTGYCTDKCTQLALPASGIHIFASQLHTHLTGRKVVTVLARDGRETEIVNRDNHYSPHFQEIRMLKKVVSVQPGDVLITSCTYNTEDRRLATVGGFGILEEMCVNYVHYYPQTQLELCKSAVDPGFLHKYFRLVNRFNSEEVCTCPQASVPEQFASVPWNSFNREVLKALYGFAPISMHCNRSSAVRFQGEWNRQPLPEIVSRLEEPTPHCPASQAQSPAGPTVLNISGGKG
Text: DBH immobilized on the IAM or Glut-P stationary phase was packed into a 1 cm×10 mm guard (Regis Technologies). The guard was placed in a holder and the resulting column connected to a chromatographic system. THE DBH-IAM-IMER and the DBH-Glut-P-IMER was washed with sodium acetate buffer [0.1M, pH 5.5] and sodium acetate buffer [0.1M, pH 6.0], respectively. The eluent from both IMERs was collected in order to determine if any of the DBH was being washed off the columns. The Biorad assay was utilized to measure the amount of non-immobilized enzyme. When the columns were not in use they were washed with sodium acetate buffer at the respective pHs and stored at 4° C.
Pumps 2 and 3 on system 2 and 3 were stopped. 100 μl of a substrate/cofactor mixture is loaded into the injector (i) and the valve is switched to the inject position at the same time the witching valve (SV) is switched such that substrate/product are eluted from the DBH-IMERs and concentrated onto the PBA column of system 2.The second pump was started and mobile phase A was pumped through the PBA column at a flow rate of 0.1 ml/min for 30 sec in order to elute, ascorbic acid and any other by-products produced from the reaction. The pump was then switched to mobile phase B with a flow rate of 0.1 ml/min for 2 min and simultaneously SV1 was switched such that unreacted substrate and product formed were concentrated on the analytical columns of System 3. When the specific contact time elapses the SV2 is switched back to the original position and the pump 3 is started.
The enzymatic activity on the DBH-Glut-P was determined by quantification of the amount of product formed with a given substrate. The temperature of the IMER unless otherwise stated was kept at 37° C. with a column heater. Stock solutions of tyramine were prepared in water. […] The kinetic parameters were determined using standard Michaelis-Menten approach. […] The rates of reaction (Vmax) were calculated using […]mol/mg/min. Results are expressed as mean±standard error of the mean (SEM). […]

[2] = molecular target: T2, dopamine beta-hydroxylase (Homo sapiens, UniProt P09172); details: 140 μM captopril; Cu2+ as CuSO4; Palatini et al., 1989; cited from earlier work
T2 sequence (P09172 1-617): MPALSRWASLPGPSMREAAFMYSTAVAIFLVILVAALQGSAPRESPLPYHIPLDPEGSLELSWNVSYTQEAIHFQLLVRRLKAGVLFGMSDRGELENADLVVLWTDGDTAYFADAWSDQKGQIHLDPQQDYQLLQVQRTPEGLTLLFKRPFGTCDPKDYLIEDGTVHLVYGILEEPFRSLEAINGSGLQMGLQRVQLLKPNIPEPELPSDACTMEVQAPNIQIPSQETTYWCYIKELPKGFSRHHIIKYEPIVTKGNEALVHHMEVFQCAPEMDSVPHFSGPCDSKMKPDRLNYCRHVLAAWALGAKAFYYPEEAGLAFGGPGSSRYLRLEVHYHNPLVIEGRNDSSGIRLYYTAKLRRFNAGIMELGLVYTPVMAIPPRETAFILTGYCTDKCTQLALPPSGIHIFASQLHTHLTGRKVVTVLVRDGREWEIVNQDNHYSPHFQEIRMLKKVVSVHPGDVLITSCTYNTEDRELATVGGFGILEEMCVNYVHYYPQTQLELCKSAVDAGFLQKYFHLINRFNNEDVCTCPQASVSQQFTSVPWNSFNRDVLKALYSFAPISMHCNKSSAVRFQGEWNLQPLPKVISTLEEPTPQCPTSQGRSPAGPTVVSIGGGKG

[3] = molecular target: T3, immobilized DBH (dopamine β-hydroxylase) (Bos taurus, UniProt P15101); assay: Captopril inhibition of immobilized DBH, batch assay (support not specified); format: biochemical, bovine
T3 construct: purchased
T3 sequence (P15101 1-610): T1 sequence (P15101 1-610)
Experimental: (§1) The enzyme was assayed as follows: four different solutions were prepared A, B, C and D (final concentration). (A) 500 μL of enzyme solution (10 μg/ml); B: 275 μL sodium acetate buffer (10 mM, pH 5.5), 50 μL cupric sulphate (5 μM); C: 25 μL catalase (5 μg/ml), 50 μL ascorbic acid (10 mM), 50 μl sodium fumarate (10 mM); D: 50 μl substrate (5 mM). Solution B was added to solution A, the resulting solution was mixed for 1 min. Solution C was added and the resulting solution was mixed for an additional minute. The reaction was started with the addition of the substrate (D), after which the reaction solution was incubated for 5 min at 37° C. in a shaking bath. The reaction was stopped by the addition of 100 μl of cold hexane, the resulting mixture was centrifuged at 3000×g for 10 min and the supernatant transferred to the pre-conditioned phenylboronic acid cartridges in order to extract the product formed and the remaining substrate. Extracted samples were directly injected onto the HPLC under either chiral or achiral conditions.
The effect of captopril on immobilized DBH kinetics is represented in the form of a reciprocal velocity plot versus the reciprocal of the concentration of tyramine. […] The slope and intercept replots were linear (r>0.995).

[4] = molecular target: T4, dopamine beta-hydroxylase (DBH), non-immobilized (Bos taurus, UniProt P15101); assay: Non-immobilized DBH activity assay, batch incubation with HPLC-fluorescence analysis; format: biochemical, bovine
T4 construct: purchased
T4 sequence (P15101 1-610): T1 sequence (P15101 1-610)
Experimental: The solutes were quantitated using fluorescence detection with excitation at λ=265 nm and no cut-off filter for emission. A flow rate of 1 ml/min and ambient temperature were used throughout the study.
Enzymatic conversions utilizing DBH require cupric sulphate, catalase, ascorbic acid and sodium fumarate. An off-line extraction method utilizing solid phase extraction cartridges containing a phenylboronic acid stationary phase was developed. The procedure consisted of the following: 1-ml cartridges were conditioned with 2 ml of methanol followed by 2 ml of sodium phosphate buffer (0.1M, pH 8.4). One ml of reaction mixture was added, the cartridge was then washed with 1 ml sodium phosphate buffer (0.1M, pH 8.4) and the substrate and product were eluted using 1 ml of 0.1N HCl. The eluate was directly injected onto the HPLC system.
as §1

[5] = molecular target: T5, dopamine beta-hydroxylase immobilized onto Glut-P (DBH-Glut-P) (Bos taurus, UniProt P15101); assay: DBH immobilized onto Glut-P stationary phase (DBH-Glut-P, DBH-Glut-P-SP), batch assay; format: biochemical, bovine; details: hydrochloride
T5 construct: purchased
T5 sequence (P15101 1-610): T1 sequence (P15101 1-610)
Experimental: The enzyme was assayed as follows: four different solutions were prepared A, B, C and D (final concentration). (A) 500 μL of enzyme solution (10 μg/ml); B: 275 μL sodium acetate buffer (10 mM, pH 5.5), 50 μL cupric sulphate (5 μM); C: 25 μL catalase (5 μg/ml), 50 μL ascorbic acid (10 mM), 50 μl sodium fumarate (10 mM); D: 50 μl substrate (5 mM). Solution B was added to solution A, the resulting solution was mixed for 1 min. Solution C was added and the resulting solution was mixed for an additional minute. The reaction was started with the addition of the substrate (D), after which the reaction solution was incubated for 5 min at 37° C. in a shaking bath. […]
The packing material was washed three times with sodium acetate buffer (0.1M, pH 6). […] The enzyme solution (8-10 μg in 1 ml sodium acetate buffer] was added to the packing material, the mixture was vortexed for 2 min and then placed on a shaker/rotator for 6 h at ambient temperature. At the end of 6 h, the suspension was centrifuged, the supernatant decanted and the packing material washed three additional times with the buffer. The amount of residual enzyme was determined utilizing the same procedure as that carried out for the enzyme immobilized onto IAM.

Q: For `C[C@H](CS)C(=O)N1CCC[C@H]1C(=O)O` [Captopril, captopril], which “concentration as low as which the IMER is inhibited” value ([1]; DBH-Glut-P IMER) is on record?
A: 50 µM

Q: And the pIC50 ([1]; on-line injection of substrate/cofactor/inhibitor mixtures, read-out: IC50 DBH-Glut-P IMER)?
A: 3.92

Q: And the “Cu^2+ concentration giving reversal of the inhibition” value [2]?
A: 1.5 µM

Q: And the “cupric sulphate concentration achieving reversal of the inhibition” value ([3]; enzyme form not stated)?
A: 2.5 µM

Q: What about the “type of inhibition with respect to tyramine (reciprocal velocity plot)” value ([3]; immobilized DBH, tyramine as varied substrate) of the same compound?
A: noncompetitive inhibition

Q: What about the “inhibition of DBH mediated formation of octopamine from tyramine” value ([3]; immobilized enzyme, concentrations as low as 150 μM) of the same compound?
A: approximately 50%

Q: And the “inhibition of DBH mediated formation of octopamine from tyramine” value ([4]; non-immobilized enzyme, concentrations as low as 150 μM)?
A: approximately 50%

Q: What about the pIC50 ([4]; read-out: IC50 DBH (Non-immobilized)) of the same compound?
A: 3.82

Q: With `Cl.NCCc1ccc(O)cc1` [Tyramine, tyramine hydrochloride] as the compound, how does the Vmax [5] read?
A: 0.112^− μmol/mg/min
